Records with an inconclusive call do not appear.

This experiment deals with U2OS PGC1a acetylation AlphaLISA, overnight. Nature of the experiment: activators raising PGC1a acetylation in cells, dose response, cell-based, cherry-picked samples, set 6 (AID 720513).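 Note: cells made to overexpress flag tagged PGC1a plus GCN5 acetyltransferase by viral infection.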
Take `COc1ccc(S(=O)(=O)N2CCOCC2)cc1NC(=O)CCNC(=O)c1ccc([N+](=O)[O-])cc1`: the AC40 was below 0.3 µM.

Turning to `Cc1cc(C)c2nc(N(CCCN(C)C)C(=O)c3ccc(S(=O)(=O)N4CCCCCC4)cc3)sc2c1`, the AC40 is 2.9 µM.

In the case of `CC1CC(NS(=O)(=O)c2cccs2)CC(C)(C)C1` (configuration not stated), the AC40 was 0.437 µM.

`C[C@@H](c1ccccc1)N1Cc2ccccc2Oc2cc(Br)ccc2S1(=O)=O`: the AC40 is 14.3 µM.

For `CC(=O)Nc1ccc(NC(=O)CN(c2cccc([N+](=O)[O-])c2)S(C)(=O)=O)cc1`, the AC40 was 0.482 µM.

As to `Cc1ccc(OC(=O)N(C)C[C@H]2OCc3ccccc3-c3c(n(C)c4ccccc34)C(=O)N([C@H](C)CO)C[C@H]2C)cc1`, the AC40 was 7.6 µM.

In the case of `CN1/C(=C\C(=O)c2cccc(S(=O)(=O)N3CCCCC3)c2)C(C)(C)c2ccccc21`, the AC40 is 10.9 µM.

Turning to `Cc1ccc(S(=O)(=O)NC(CC(C)C)C(=O)N2CCCCCCC2)cc1` (configuration not stated), the AC40 was 1.59 µM.

Consider `O=C(CN1CCC(n2nnc3ccccc32)CC1)NCc1cccs1`, for which the AC40 is 1.67 µM.

With `N#Cc1cccc(C(c2nnnn2C2CCCC2)N2CCCCCC2)c1` (configuration not stated), the AC40 was 1.24 µM.

For `COc1ccc(-c2nc3c(C)cc(Br)cn3c2Cc2ccc(C)cc2)cc1OC`, the AC40 was 8.31 µM.

`C[C@@H]1CN([C@H](C)CO)C(=O)c2cc(N(C)C)ccc2O[C@@H](C)CCCCO[C@H]1CN(C)C(=O)Nc1ccccc1`: the AC40 is 10.6 µM.

Turning to `COc1ccc(N(C(=O)c2snc(C(N)=O)c2N)C(C(=O)NC2CCCCC2)c2ccc(C)o2)cc1` (configuration not stated), the AC40 was 5.68 µM.

On to `O=C(CN1CCC(n2nnc3cc(F)ccc32)CC1)NCc1ccco1`, for which the AC40 was 1.69 µM.

Take `Cc1ccc2[nH]c(=O)c(CN(Cc3ccc4c(c3)OCO4)Cc3nnnn3C3CCCC3)cc2c1`: the AC40 is 7.98 µM.

Regarding `O=C(Nc1ccccc1)C1=C[C@@H](c2ccc(C(F)(F)F)cc2)C[C@@H](OCc2ccc(CO)cc2)O1`, the AC40 was below 2.6 µM.

For the compound `COc1ccc(NC(=O)N(C)C[C@H]2OCc3ccccc3-c3c(n(C)c4ccccc34)C(=O)N([C@@H](C)CO)C[C@H]2C)c(OC)c1`, the AC40 was 3.5 µM.

`OC[C@H]1O[C@@H](n2cnc3c(NCc4ccco4)ncnc32)[C@H](O)[C@@H]1O`: the AC40 is 7.4 µM.

Consider `O=S(=O)(c1cccc(F)c1)N1CCN(Cc2cc3c(cc2Br)OCCO3)CC1`, for which the AC40 was 0.411 µM.

`CC1(Cc2ccc(Cl)cc2)C(=O)Nc2c(Cl)ccc(Cl)c21` (configuration not stated): the AC40 was 4.52 µM.

On to `CC(C)C(OC(=O)c1cccs1)C(=O)NC1CCCCC1` (configuration not stated), for which the AC40 is 2.58 µM.

Turning to `COc1ccc(NC(=O)c2sccc2SCc2cccc(C(F)(F)F)c2)cc1`, the AC40 is 4.18 µM.

On to `O=C1C=C(c2cc3ccccc3s2)CCC1`, for which the AC40 is 3.77 µM.

`CC(=O)Nc1sc2c(c1-c1nc3ccccc3s1)CN(C(C)C)CC2`: the AC40 is 1.45 µM.

In the case of `Cc1ccc(S(=O)(=O)N2C[C@@H]3N[C@H](C2)[C@@H]3c2ccc(-c3cccc(C)c3)cc2)cc1`, the AC40 is 5.18 µM.

For `COC(=O)C[C@H]1c2cc(C(F)(F)F)ccc2S(=O)(=O)N1Cc1ccc(OC)cc1`, the AC40 was 5.25 µM.

For `Cc1sc(NC(=O)c2cccs2)nc1-c1ccccc1`, the AC40 is 0.581 µM.

Turning to `O=C(NCCC(c1ccccc1)c1ccccc1)c1ccc(Br)o1`, the AC40 was 12.9 µM.

As for `Cc1cccc(-c2ccc3[nH]c4c(c3c2)CCN2C[C@@H]([C@H](C)O)[C@@H](N(C)C(=O)NC3CCCCC3)C[C@@H]42)c1`, the AC40 is 13.7 µM.

Take `Cc1ccc(NC(=O)c2c(C(F)(F)F)nn(C)c2SCc2ccc(Cl)cc2)cc1C`: the AC40 is 5.5 µM.

On to `C[C@H](CO)N1C[C@H](C)[C@H](CN(C)Cc2ccc(C(=O)Nc3ccccc3N)cc2)Oc2c(NC(=O)c3ccncc3)cccc2C1=O`, for which the AC40 was 12 µM.

For `O=C(CSc1nnc(Cn2cnc3ccccc32)o1)c1ccccc1`, the AC40 is 7.68 µM.

Turning to `C[C@@H]1CN([C@@H](C)CO)C(=O)Cc2cc(NC(=O)Cc3ccccc3)ccc2O[C@H]1CN(C)C(=O)Nc1ccccc1`, the AC40 was 0.263 µM.

Turning to `O=C(c1cccs1)N1CCN(c2nnc(-c3ccccc3)c3ccccc23)CC1`, the AC40 is 1.65 µM.

For the compound `CS(=O)(=O)N(CC(=O)N1CCN(c2ccccc2)CC1)c1cccc(Br)c1`, the AC40 is 17.8 µM.

With `Clc1ccc(-c2nnc(-c3ccccc3)nc2N2CCSCC2)cc1`, the AC40 was 17.7 µM.

On to `CC1(C)OC(C)(C)/C(=C\c2ccc(OCC(N)=O)cc2)C1=O`, for which the AC40 was 6.64 µM.

As to `Cc1nc(N2CCN(S(=O)(=O)c3ccc(F)cc3)CC2)c2c(-c3cccs3)csc2n1`, the AC40 is 3.27 µM.

Turning to `CCOC(=O)c1sc2nc(C)nc(NCc3ccccc3OC)c2c1C`, the AC40 was 3.12 µM.

On to `C[C@@H]1CN([C@@H](C)CO)C(=O)c2c(c3ccccc3n2C)-c2ccccc2CO[C@@H]1CN(C)C(=O)c1ccc(F)cc1`, for which the AC40 is 4.7 µM.

Consider `Cc1cc(N2CCC(C(N)=O)CC2)nc(-c2ccccc2)n1`, for which the AC40 was 3.95 µM.

Regarding `O=C(Nc1ccc(F)cc1F)N1CCCN(c2ccc([N+](=O)[O-])cn2)CC1`, the AC40 was 3.36 µM.

As to `O=C(COc1ccc([N+](=O)[O-])cc1)Nc1ccc(C(=O)NCc2cccnc2)cc1`, the AC40 is 0.283 µM.

Regarding `O=c1[nH]nc(SCCS(=O)(=O)c2ccc(F)cc2)n1-c1ccccc1`, the AC40 was 15.2 µM.

Consider `CSCCC(c1nnnn1-c1c(C)cccc1C)N1CCC(n2c(=O)[nH]c3ccccc32)CC1` (configuration not stated), for which the AC40 is 1.32 µM.

As to `CCn1c(=S)[nH]c2cc(S(=O)(=O)N3CCCCC3)ccc21`, the AC40 was 1.62 µM.

Turning to `O=C(NCc1cccs1)C1Cc2c(-c3ccc(Cl)cc3)ccnc2O1` (configuration not stated), the AC40 was 8.86 µM.

With `COc1ccc(CC(=O)OCC(=O)NCc2ccco2)cc1`, the AC40 was 9.28 µM.

`COC(=O)[C@@]1(C)[C@H]2C(=O)N(Cc3ccccc3)C(=O)[C@H]2[C@H]2CN=C(SCC3CC3)N21`: the AC40 is 16.8 µM.

Consider `O=C(NCCCN1CCOCC1)c1ccccc1N1C(=O)[C@@H]2Cc3c([nH]c4ccccc34)C(c3ccccc3)N2C1=O` (some centres not stated), for which the AC40 is 6.79 µM.

In the case of `Cc1ccccc1-c1ccc([C@@H]2[C@H](CO)N3CCCCN(C(=O)Nc4cccc(F)c4)C[C@@H]23)cc1`, the AC40 is 8.22 µM.

Take `CC1CN(S(=O)(=O)c2ccc(C(=O)NCCCn3ccnc3)cc2)CC(C)O1` (configuration not stated): the AC40 is 0.246 µM.

`CN(C)CC(O)c1ccc(C=Cc2ccc(Cl)cc2)cc1` (configuration not stated): the AC40 was 3.19 µM.

On to `Cc1cc(Nc2cccc(Cl)c2)c2ccccc2n1`, for which the AC40 was 6.94 µM.

For the compound `CCOc1ccc(S(=O)(=O)N2c3ccccc3CC2C)cc1` (configuration not stated), the AC40 is 11.5 µM.

For `CC(C)(C)c1ccc(C(=O)c2c[nH]c(C(=O)NCc3cccnc3)c2)cc1`, the AC40 is 1.23 µM.

Regarding `Cc1ccccc1Cn1cc(NC(=O)c2cc(-c3cccs3)on2)cn1`, the AC40 is 1.32 µM.

For the compound `O=C(COCc1cc(-c2ccc3c(c2)OCO3)on1)Nc1cccnc1`, the AC40 was 0.458 µM.

With `COc1ccc(S(=O)(=O)Nc2ccc3c(c2)C(=O)N([C@@H](C)CO)C[C@@H](C)[C@H](CN(C)S(=O)(=O)c2ccc(Cl)cc2)OCCCC[C@H](C)O3)cc1`, the AC40 is 9.66 µM.

Regarding `O=C1NCN(c2ccccc2)C12CCN(C(c1cc3ccccc3o1)c1nnnn1C1CCCCC1)CC2` (configuration not stated), the AC40 was 1.78 µM.

With `CC(C)CCNc1nc(N2CCCC2)c2c(c1C#N)CCN(C)C2`, the AC40 is 3.92 µM.

Take `CCN(CC)CCNC(=O)c1ccc2c(c1NCCO)C(=O)c1ccccc1C2=O`: the AC40 was 14.6 µM.

(Values after PubChem BioAssay AID720513 (Broad Institute, 2013).)
